MIC data for 5 compounds are collected here from patent US4201774A, “Novel aminoglycoside derivatives” (Shionogi & Co., Ltd., priority 1977, dated 1980).

Test [1] relates to Proteus mirabilis TB-617. Briefly: MIC, Proteus mirabilis TB-617*. Type of test: cell-based. As to conditions: TB617; Proteus mirabilis TB-617, tobramycin resistant strain; read-out: minimum inhibitory concentration (MIC).
Test [2] relates to Pseudomonas aeruginosa TB-485. In words: MIC, Pseudomonas aeruginosa TB-485*. Type of test: cell-based. As to conditions: TB485; Pseudomonas aeruginosa TB-485, tobramycin resistant strain; read-out: minimum inhibitory concentration (MIC).

Converted amounts (≈) assume the structure as drawn.

Regarding `NC[C@H]1O[C@H](O[C@H]2[C@H](O)[C@@H](O[C@H]3O[C@H](CO)[C@@H](O)[C@H](N)[C@H]3O)[C@H](NCC3(O)CNC3)C[C@@H]2N)[C@H](N)C[C@@H]1O` [Test compound (1), 1-N-[(3-hydroxyazetidin-3-yl)methyl]tobramycin], the MIC was found to be 1.56 µg/mL (≈ 2.82 µM) in test [1] and 6.25 µg/mL (≈ 11.3 µM) in test [2].

As for `NC[C@H]1O[C@H](O[C@H]2[C@H](O)[C@@H](O[C@H]3O[C@H](CO)[C@@H](O)[C@H](N)[C@H]3O)[C@H](NCC3(O)CCNC3)C[C@@H]2N)[C@H](O)[C@@H](O)[C@@H]1O` (stereo partly shown) [Test compound (4), 1-N-[(3-hydroxypyrrolidin-3-yl)methyl]kanamycin A], the MIC in test [1] turned out to be 3.13 µg/mL (≈ 5.36 µM); in test [2] it was 6.25 µg/mL (≈ 10.7 µM).

In the case of `NC[C@H]1O[C@H](O[C@H]2[C@H](O)[C@@H](O[C@H]3O[C@H](CO)[C@@H](O)[C@H](N)[C@H]3O)[C@H](N)C[C@@H]2N)[C@H](N)C[C@@H]1O` [Test compound (5), tobramycin, reference compound], the MIC in test [1] worked out at 6.25 µg/mL (≈ 13.4 µM); in test [2], 25 µg/mL (≈ 53.5 µM).

With `NC[C@H]1O[C@H](O[C@H]2[C@H](O)[C@@H](O[C@H]3O[C@H](CO)[C@@H](O)[C@H](N)[C@H]3O)[C@H](NCC3(O)CNC3)C[C@@H]2N)[C@H](O)[C@@H](O)[C@@H]1O` [Test compound (3), 1-N-[(3-hydroxyazetidin-3-yl)methyl]kanamycin A], the MIC in test [1] and in test [2] was 6.25 µg/mL (≈ 11 µM) in each case.

In the case of `NC[C@H]1O[C@H](O[C@H]2[C@H](O)[C@@H](O[C@H]3O[C@H](CO)[C@@H](O)[C@H](N)[C@H]3O)[C@H](NCC3(O)CCNC3)C[C@@H]2N)[C@H](N)C[C@@H]1O` (stereo partly shown) [Test compound (2), 1-N-[(3-hydroxypyrrolidin-3-yl)methyl]tobramycin], the MIC turned out to be 1.56 µg/mL (≈ 2.75 µM) in test [1] and 3.13 µg/mL (≈ 5.52 µM) in test [2].
